Test results reported in patent publication US9561228B2 (Celgene Avilomics Research, Inc., priority 2013, dated 2017).

How the values were obtained:
[1] = tested on: ERK1/2 phosphorylation of p90RSK in HCT116 cells; assay: Detection of total and phospho-RSK by MSD ELISA (HCT116); assay type: cell-based; conditions: Homo sapiens, HCT-116, read-out: ERK1/ERK2 PRSK HCT116 EC50
Summary of the method: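 ERK1/2 activity read in cells as p90RSK phosphorylation: lysates from HCT116 cells given compound for 2 h at 37° C were captured on MSD plates. Detection used a pSer380 RSK or a total RSK antibody with SulfoTag secondaries.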

[2] = target: T1, MEK1 activated ERK1 (Homo sapiens, UniProt P27361); assay: Omnia continuous-read kinase assay for potency against MEK1 activated ERK1; assay type: biochemical; conditions: ATP at KM, WT
T1 construct: purchased Millipore (Billerica, Mass.) 14-439-K
T1 sequence (P27361 whole entry): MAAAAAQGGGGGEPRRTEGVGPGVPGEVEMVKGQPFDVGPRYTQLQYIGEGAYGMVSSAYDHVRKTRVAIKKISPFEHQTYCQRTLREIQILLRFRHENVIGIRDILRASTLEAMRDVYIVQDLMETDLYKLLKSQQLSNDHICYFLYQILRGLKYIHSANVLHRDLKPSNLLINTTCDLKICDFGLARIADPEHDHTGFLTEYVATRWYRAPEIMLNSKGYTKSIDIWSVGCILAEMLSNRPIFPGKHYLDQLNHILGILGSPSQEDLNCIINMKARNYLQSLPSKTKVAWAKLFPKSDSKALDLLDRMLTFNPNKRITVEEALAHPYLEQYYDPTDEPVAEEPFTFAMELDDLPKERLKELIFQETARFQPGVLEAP
Summary of the method: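 Apparent IC50 came from initial reaction slopes (RFU vs time) plotted against log inhibitor with a variable-slope fit. Reactions were started with ERK1 (4 nM final) added to 50 μM ATP, roughly at its appKM, and 10 μM Sox-conjugated ST17 peptide in 20 mM Tris pH 7.5, 5 mM MgCl2. Fluorescence was monitored every 71 seconds.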

| EC50 [1] [nM] | IC50 [2] [nM] | Compound |
| --- | --- | --- |
| 101 to 500 | < 100 | C=CC(=O)Nc1cc(OCC(=O)N2CCN(C(C)=O)CC2)ccc1Nc1nc(Nc2cc(OC)ncc2OC)ncc1C(F)(F)F [Compound I-415, N-(5-(2-(4-acetylpiperazin-1-yl)-2-oxoethoxy)-2-((2-((2,5-dimethoxypyridin-4-yl)amino)-5-(trifluoromethyl)pyrimidin-4-yl)amino)phenyl)acrylamide] |
| > 1000 | > 1000 | C=CC(=O)Nc1cc(C)ccc1Nc1nc(NCC2COC2)ncc1C(F)(F)F [Compound I-417, N-(5-methyl-2-((2-((oxetan-3-ylmethyl)amino)-5-(trifluoromethyl)pyrimidin-4-yl)amino)phenyl)acrylamide] |
| 101 to 500 | < 100 | C=CC(=O)Nc1cc(OCCN2CCN(C(C)=O)CC2)ccc1Nc1nc(Nc2cc(OC)ncc2C)ncc1C(F)(F)F [Compound I-416, N-(5-(2-(4-acetylpiperazin-1-yl)ethoxy)-2-((2-((2-methoxy-5-methylpyridin-4-yl)amino)-5-(trifluoromethyl)pyrimidin-4-yl)amino)phenyl)acrylamide] |
| 101 to 500 | 101 to 500 | C=CC(=O)Nc1cc(C)ccc1Nc1nc(Nc2cc(C(=O)OC)nn2C)ncc1C(F)(F)F [Compound I-418, Methyl 5-((4-((2-acrylamido-4-methylphenyl)amino)-5-(trifluoromethyl)pyrimidin-2-yl)amino)-1-methyl-1H-pyrazole-3-carboxylate] |
| > 1000 | > 1000 | C=CC(=O)Nc1cc(C)ccc1Nc1nc(Nc2cc(C(F)(F)F)nn2C)ncc1C(F)(F)F [Compound I-419, N-(5-methyl-2-((2-((1-methyl-3-(trifluoromethyl)-1H-pyrazol-5-yl)amino)-5-(trifluoromethyl)pyrimidin-4-yl)amino)phenyl)acrylamide] |
| < 100 | 101 to 500 | C=CC(=O)Nc1cc(CN2CCN(C(=O)c3ccccn3)CC2)ccc1Nc1nc(Nc2cc(OC)ncc2C)ncc1C(F)(F)F [Compound I-388, N-(2-((2-((2-methoxy-5-methylpyridin-4-yl)amino)-5-(trifluoromethyl)pyrimidin-4-yl)amino)-5-((4-picolinoylpiperazin-1-yl)methyl)phenyl)acrylamide] |
| 101 to 500 | 101 to 500 | C=CC(=O)Nc1cc(CN2CCN(C(=O)c3ccccn3)CC2)ccc1Nc1nc(Nc2nc(OC)ncc2C)ncc1C(F)(F)F [Compound I-391, N-(2-((2-((2-methoxy-5-methylpyrimidin-4-yl)amino)-5-(trifluoromethyl)pyrimidin-4-yl)amino)-5-((4-picolinoylpiperazin-1-yl)methyl)phenyl)acrylamide] |
| 101 to 500 | < 100 | C=CC(=O)Nc1cc(O[C@@H](C)C(N)=O)ccc1Nc1nc(Nc2cc(OC)ncc2C)ncc1C(F)(F)F [Compound I-412, (S)—N-(5-((1-amino-1-oxopropan-2-yl)oxy)-2-((2-((2-methoxy-5-methylpyridin-4-yl)amino)-5-(trifluoromethyl)pyrimidin-4-yl)amino)phenyl)acrylamide] |
| 501 to 999 | 101 to 500 | C=CC(=O)Nc1cc(CCc2cnn(C)c2)ccc1Nc1nc(Nc2cc(OC)ncc2C)ncc1C(F)(F)F [Compound I-427, N-(2-((2-((2-methoxy-5-methylpyridin-4-yl)amino)-5-(trifluoromethyl)pyrimidin-4-yl)amino)-5-(2-(1-methyl-1H-pyrazol-4-yl)ethyl)phenyl)acrylamide] |
| > 1000 | > 1000 | C=CC(=O)Nc1cc(C)ccc1Nc1nc(Nc2cc(C(N)=O)nn2C)ncc1C(F)(F)F [Compound I-423, 5-((4-((2-acrylamido-4-methylphenyl)amino)-5-(trifluoromethyl)pyrimidin-2-yl)amino)-1-methyl-1H-pyrazole-3-carboxamide] |
